Converted amounts (≈) assume the structure as drawn.
Columns and labels:
KB = assay: Cytotoxicity against human KB cells; assay type: functional, cell-based
L1210 = assay: Cytotoxicity against mouse L1210 cells; assay type: functional, cell-based

**Q.** For C=C(C)[C@H](C)/C=C/[C@@H](C)[C@H]1CC[C@H]2C3=C[C@@H](O)[C@@]4(O)C[C@@H](O)CC[C@]4(C)[C@H]3CC[C@]12C [BIEMNASTEROL], which IC50 (KB) is on record?
**A.** 1.3 µg/mL (≈ 3.03 µM)

**Q.** And the IC50 (L1210)?
**A.** 3 µg/mL (≈ 7 µM)

Reference: ChEMBL document CHEMBL1147397, “Biemnasterol, a new cytotoxic sterol with the rare 22,25-diene side chain, isolated from the marine sponge Biemna sp” (J Nat Prod, 1993)
